Like-named read-outs stand apart in the source and are kept apart here.
Target: T1, hP2Y14R (Homo sapiens, UniProt Q15391)
T1 construct: expressed in transfected cells; host or cells: CHO cells
T1 sequence (Q15391 1-338): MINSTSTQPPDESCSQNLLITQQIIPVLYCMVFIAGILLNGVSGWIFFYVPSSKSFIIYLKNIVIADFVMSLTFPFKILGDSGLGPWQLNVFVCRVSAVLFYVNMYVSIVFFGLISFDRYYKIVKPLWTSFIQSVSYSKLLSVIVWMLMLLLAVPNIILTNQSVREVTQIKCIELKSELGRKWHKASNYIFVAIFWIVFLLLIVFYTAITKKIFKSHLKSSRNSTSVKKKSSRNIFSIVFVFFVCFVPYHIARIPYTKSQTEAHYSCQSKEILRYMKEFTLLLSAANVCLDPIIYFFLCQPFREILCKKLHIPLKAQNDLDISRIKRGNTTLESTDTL
Experiment: Inhibition of fluorescent antagonist binding in whole hP2Y14R-expressing CHO cells (flow cytometry)

[1] = Example 5 table, whole cell fluorescent binding assay, read-out: IC50
[2] = Table 1, fluorescent antagonist 2, hP2Y14R-CHO cells, 3-4 determinations, read-out: IC50, hP2Y14R (μM, mean ± SEM)
[3] = Table 2, whole hP2Y14R-CHO cells, 20 nM fluorescent antagonist 3, mean+SEM, n = 3-6, read-out: IC50

Row | IC50 [1] [µM] | Molecule | IC50 [2] [µM] | also measured
1 | 0.00592 ± 0.00055 | O=C(O)c1cc(-c2ccc([C@@]3(O)[C@@H]4CNC[C@H]3C4)cc2)c2ccc(-c3ccc(C(F)(F)F)cc3)cc2c1 [Compound 425, 4-(4-((1R,5S,6r)-6-Hydroxy-3-azabicyclo[3.1.1]heptan-6-yl)phenyl)-7-(4-(trifluoromethyl)phenyl)-2-naphthoic acid] | – | –
2 | – | NC1(c2ccc(-c3cc(C(=O)O)cc(-n4cc(-c5ccc(C(F)(F)F)cc5)nn4)c3)cc2)CCC1 [Compound 25, 4′-(1-Aminocyclobutyl)-5-(4-(4-(trifluoromethyl)phenyl)-1H-1,2,3-triazol-1-yl)-[1,1′-biphenyl]-3-carboxylic acid] | 2 ± 0.18 | –
3 | 1.78 ± 0.44 | O=C(O)c1cc(-c2ccc(C3(O)CCCNCCC3)cc2)c2ccc(-c3ccc(C(F)(F)F)cc3)cc2c1 [Compound 430, 4-(4-(5-hydroxyazocan-5-yl)phenyl)-7-(4-(trifluoromethyl)phenyl)-2-naphthoic acid] | – | –
4 | – | O=C(O)c1cc(-c2ccc(C3=C[C@H]4CNC[C@@H]4C3)cc2)c2ccc(-c3ccc(C(F)(F)F)cc3)cc2c1 (racemic) [Compound 412, rac-4-(4-((3aR,6aR)-1,2,3,3a,4,6a-Hexahydrocyclopenta[c]pyrrol-5-yl)phenyl)-7-(4-(trifluoromethyl)phenyl)-2-naphthoic acid] | – | IC50 (read-out: IC50): 0.0166 ± 0.0032 µM
5 | – | NC1(c2ccc(-c3cc(C(=O)O)cc(-n4cc(-c5ccc(C(F)(F)F)cc5)nn4)c3)cc2)CC1 [Compound 22, 4′-(1-Aminocyclopropyl)-5-(4-(4-(trifluoromethyl)phenyl)-1H-1,2,3-triazol-1-yl)-[1,1′-biphenyl]-3-carboxylic acid] | 14.1 ± 0.9 | –
6 | – | Nc1ccc(-c2cc(C(=O)O)cc(-n3cc(-c4ccc(C(F)(F)F)cc4)nn3)c2)cc1 [Compound 7, 4′-Amino-5-(4-(4-(trifluoromethyl)phenyl)-1H-1,2,3-triazol-1-yl)-[1,1′-biphenyl]-3-carboxylic acid] | 1.48 ± 0.16 | –
7 | – | O=C(O)c1ccc(-c2cc(C(=O)O)cc(-n3cc(-c4ccc(C(F)(F)F)cc4)nn3)c2)cc1 [Compound 13, 5-(4-(4-(Trifluoromethyl)phenyl)-1H-1,2,3-triazol-1-yl)-[1,1′-biphenyl]-3,4′-dicarboxylic acid] | 0.632 ± 0.023 | –
8 | – | O=C(O)c1cc(-c2ccc(C3CCN(CCCCc4cn([C@@H]5O[C@H](CO)[C@@H](O)[C@H](O)[C@H]5O)nn4)CC3)cc2)c2ccc(-c3ccc(C(F)(F)F)cc3)cc2c1 [Compound 508, 7-(4-(Trifluoromethyl)phenyl)-4-(4-(1-(4-(1-((2R,3R,4S,5S,6R)-3,4,5-trihydroxy-6-(hydroxymethyl)tetrahydro-2H-pyran-2-yl)-1H-1,2,3-triazol-4-yl)butyl)piperidin-4-yl)phenyl)-2-naphthoic acid] | – | IC50 [3]: 0.0157 ± 0.0025 µM
9 | 0.0659 ± 0.0193 | O=C(O)c1cc(-c2ccc(C3CNC3)cc2)c2ccc(-c3ccc(C(F)(F)F)cc3)cc2c1 [Compound 405, 4-(4-(Azetidin-3-yl)phenyl)-7-(4-(trifluoromethyl)phenyl)-2-naphthoic acid] | – | –
10 | 0.524 ± 0.104 | O=C(O)c1cc(-c2ccc([C@H]3[C@@H]4CNC[C@H]3C4)cc2)c2ccc(-c3ccc(C(F)(F)F)cc3)cc2c1 [Compound 424, 4-(4-((1R,5S,6r)-3-Azabicyclo[3.1.1]heptan-6-yl)phenyl)-7-(4-(trifluoromethyl)phenyl)-2-naphthoic acid] | – | –
11 | – | O=C(O)c1cc(-c2ccc([C@H]3C[C@H]4C[C@@H]3C(=O)N4)cc2)c2ccc(-c3ccc(C(F)(F)F)cc3)cc2c1 [Compound 119, 4-(4-((1S,4S,5S)-3-Oxo-2-azabicyclo[2.2.1]heptan-5-yl)phenyl)-7-(4-(trifluoromethyl)phenyl)-2-naphthoic acid] | – | IC50 [3]: 0.101 ± 0.07 µM
12 | – | O=C(O)c1cc(-c2ccc(CCCCO)cc2)cc(-n2cc(-c3ccc(C(F)(F)F)cc3)nn2)c1 [Compound 21, 4′-(4-Hydroxybutyl)-5-(4-(4-(trifluoromethyl)phenyl)-1H-1,2,3-triazol-1-yl)-[1,1′-biphenyl]-3-carboxylic acid] | 9.22 ± 1.22 | –
13 | – | CS(=O)(=O)N1C[C@H]2C[C@@H]1C[C@@H]2c1ccc(-c2cc(C(=O)O)cc3cc(-c4ccc(C(F)(F)F)cc4)ccc23)cc1 [Compound 123] | – | IC50 [3]: 0.497 ± 0.092 µM
14 | – | N#CCCc1ccc(-c2cc(C(=O)O)cc(-n3cc(-c4ccc(C(F)(F)F)cc4)nn3)c2)cc1 [Compound 17, 4′-(2-Cyanoethyl)-5-(4-(4-(trifluoromethyl)phenyl)-1H-1,2,3-triazol-1-yl)-[1,1′-biphenyl]-3-carboxylic acid] | 17.8 ± 2.9 | –
15 | – | CC(C)(C)OC(=O)NCC1(c2ccc(-c3cc(C(=O)O)cc(-n4cc(-c5ccc(C(F)(F)F)cc5)nn4)c3)cc2)CC1 [Compound 24, 4′-(1-(((tert-Butoxycarbonyl)amino)methyl)cyclopropyl)-5-(4-(4-(trifluoromethyl)phenyl)-1H-1,2,3-triazol-1-yl)-[1,1′-biphenyl]-3-carboxylic acid] | 18.8 ± 2 | –
16 | – | CC(C)(C)OC(=O)N1CCC(C(=O)Nc2ccc(-c3cc(C(=O)O)cc(-n4cc(-c5ccc(C(F)(F)F)cc5)nn4)c3)cc2)CC1 [Compound 12, 4′-(1-(tert-Butoxycarbonyl)piperidine-4-carboxamido)-5-(4-(4-(trifluoromethyl)phenyl)-1H-1,2,3-triazol-1-yl)-[1,1′-biphenyl]-3-carboxylic acid] | 22.5 ± 3.7 | –
17 | – | O=C(O)c1cc(-c2ccc(C3C[C@H]4CNC[C@@H]4C3)cc2)c2ccc(-c3ccc(C(F)(F)F)cc3)cc2c1 (racemic) [Compound 413, rac-4-(4-((3aR,6aR)-Octahydrocyclopenta[c]pyrrol-5-yl)phenyl)-7-(4-(trifluoromethyl)phenyl)-2-naphthoic acid] | – | IC50 (read-out: IC50): 0.032 ± 0.0112 µM
18 | – | O=C(O)c1cc(-c2ccc(C3(O)C[C@H]4CNC[C@@H]4C3)cc2)c2ccc(-c3ccc(C(F)(F)F)cc3)cc2c1 (racemic) [Compound 411, rac-4-(4-((3aR,6aR)-5-hydroxyoctahydrocyclopenta[c]pyrrol-5-yl)phenyl)-7-(4-(trifluoromethyl)phenyl)-2-naphthoic acid] | – | IC50 (read-out: IC50): 0.00948 ± 0.00166 µM
19 | – | CC(=O)Nc1ccc(-c2cc(C(=O)O)cc(-n3cc(-c4ccc(C(F)(F)F)cc4)nn3)c2)cc1 [Compound 8, 4′-Acetamido-5-(4-(4-(trifluoromethyl)phenyl)-1H-1,2,3-triazol-1-yl)-[1,1′-biphenyl]-3-carboxylic acid] | 0.811 ± 0.095 | –
20 | – | NCC1(c2ccc(-c3cc(C(=O)O)cc(-n4cc(-c5ccc(C(F)(F)F)cc5)nn4)c3)cc2)CC1 [Compound 23, 4′-(1-(Aminomethyl)cyclopropyl)-5-(4-(4-(trifluoromethyl)phenyl)-1H-1,2,3-triazol-1-yl)-[1,1′-biphenyl]-3-carboxylic acid] | 8.91 ± 0.75 | –
21 | – | NCCCc1ccc(-c2cc(C(=O)O)cc(-n3cc(-c4ccc(C(F)(F)F)cc4)nn3)c2)cc1 [Compound 18, 4′-(3-Aminopropyl)-5-(4-(4-(trifluoromethyl)phenyl)-1H-1,2,3-triazol-1-yl)-[1,1′-biphenyl]-3-carboxylic acid] | 0.292 ± 0.067 | –
22 | – | O=C(O)c1cc(-c2ccc(-c3cc(CCO)on3)cc2)cc(-n2cc(-c3ccc(C(F)(F)F)cc3)nn2)c1 [Compound 30, 4′-(5-(2-Hydroxyethyl)isoxazol-3-yl)-5-(4-(4-(trifluoromethyl)phenyl)-1H-1,2,3-triazol-1-yl)-[1,1′-biphenyl]-3-carboxylic acid] | 0.389 ± 0.042 | –
23 | 0.0466 ± 0.0071 | O=C(O)c1cc(-c2ccc(C3CC4(CNC4)C3)cc2)c2ccc(-c3ccc(C(F)(F)F)cc3)cc2c1 [Compound 406, 4-(4-(2-Azaspiro[3.3]heptan-6-yl)phenyl)-7-(4-(trifluoromethyl)phenyl)-2-naphthoic acid] | – | –
24 | 0.00969 ± 0.00356 | O=C(O)c1cc(-c2ccc(C3=CC4(CNC4)C3)cc2)c2ccc(-c3ccc(C(F)(F)F)cc3)cc2c1 [Compound 407, 4-(4-(2-Azaspiro[3.3]hept-5-en-6-yl)phenyl)-7-(4-(trifluoromethyl)phenyl)-2-naphthoic acid] | – | –
25 | 0.00958 ± 0.00514 | O=C(O)c1cc(-c2ccc(C3CCCNCC3)cc2)c2ccc(-c3ccc(C(F)(F)F)cc3)cc2c1 (centres unmarked) [Compound 426, 4-(4-(Azepan-4-yl)phenyl)-7-(4-(trifluoromethyl)phenyl)-2-naphthoic acid] | – | –
26 | – | O=C(O)c1cc(-c2ccc([C@H]3C[C@H]4C[C@@H]3NC4=O)cc2)c2ccc(-c3ccc(C(F)(F)F)cc3)cc2c1 [Compound 122, 4-(4-((1S,4S,6R)-3-Oxo-2-azabicyclo[2.2.1]heptan-6-yl)phenyl)-7-(4-(trifluoromethyl)phenyl)-2-naphthoic acid] | – | IC50 [3]: 0.0586 ± 0.0129 µM
27 | – | NC(=O)Cc1ccc(-c2cc(C(=O)O)cc(-n3cc(-c4ccc(C(F)(F)F)cc4)nn3)c2)cc1 [Compound 16, 4′-(2-Amino-2-oxoethyl)-5-(4-(4-(trifluoromethyl)phenyl)-1H-1,2,3-triazol-1-yl)-[1,1′-biphenyl]-3-carboxylic acid] | 1.29 ± 0.32 | –
28 | 0.0119 ± 0.0036 | Mixture of 4-(4-(2,3,6,7-Tetrahydro-1H-azepin-4-yl)phenyl)-7-(4-(trifluoromethyl)phenyl)-2-naphthoic acid and 4-(4-(2,5,6,7-tetrahydro-1H-azepin-4-yl)phenyl)-7-(4-(trifluoromethyl)phenyl)-2-naphthoic acid [Compound 427] | – | –

Row | Molecule | IC50 [1] [µM] | IC50 [2] [µM] | also measured
29 | 4-(4-(6-Methoxy-2-azaspiro[3.3]heptan-6-yl)phenyl)-7-(4-(trifluoromethyl)phenyl)-2-naphthoic acid and 4-(4-(6-(methoxy-d3)-2-azaspiro[3.3]heptan-6-yl)phenyl)-7-(4-(trifluoromethyl)phenyl)-2-naphthoic acid [Compound 409] | 0.0465 ± 0.01 | – | –
